{"source": "patent US20260027125A1", "about": "“AN ANTIBACTERIAL PARENTERAL FORMULATION AND METHODS THEREOF” (BUGWORKS RESEARCH INDIA PVT. LTD., priority 2022, published 2026)", "key": {"Citrobacter freundii": {"system": "Citrobacter freundii", "assay": "microbe, parasite or virus in culture", "format": "cell-based"}, "Acinetobacter baumannii": {"system": "Acinetobacter baumannii", "assay": "microbe, parasite or virus in culture", "format": "cell-based"}, "[1]": {"system": "Bacteroides fragilis (anaerobe)", "assay": "microbe, parasite or virus in culture", "format": "cell-based"}, "[2]": {"system": "Burkholderia cepacia species", "assay": "microbe, parasite or virus in culture", "format": "cell-based"}, "[3]": {"assay": "Solubility enhancement trials", "format": "physicochemical", "description": "All observations were recorded once the solution temperature reached to 25° C.-30° C."}, "Serratia marcescens": {"system": "Serratia marcescens", "assay": "microbe, parasite or virus in culture", "format": "cell-based"}, "Providencia spp.": {"system": "Providencia spp.", "assay": "microbe, parasite or virus in culture", "format": "cell-based"}, "[4]": {"system": "Coagulase-negatives Staphylococcus", "assay": "microbe, parasite or virus in culture", "format": "cell-based"}, "Pseudomonas aeruginosa": {"system": "Pseudomonas aeruginosa", "assay": "microbe, parasite or virus in culture", "format": "cell-based"}, "[5]": {"system": "Klebsiella oxytoca, aerogenes", "assay": "microbe, parasite or virus in culture", "format": "cell-based"}, "Enterococcus faecalis": {"system": "Enterococcus faecalis", "assay": "microbe, parasite or virus in culture", "format": "cell-based"}, "[6]": {"system": "Burkholderia pseudomallei", "assay": "microbe, parasite or virus in culture", "format": "cell-based"}, "Enterobacter aerogenes": {"system": "Enterobacter aerogenes", "assay": "microbe, parasite or virus in culture", "format": "cell-based"}, "Bacillus anthracis": {"system": "Bacillus anthracis", "assay": "microbe, parasite or virus in culture", "format": "cell-based"}, "[7]": {"system": "Fusobacterium spp. (anaerobe)", "assay": "microbe, parasite or virus in culture", "format": "cell-based"}, "Campylobacter sp.": {"system": "Campylobacter sp.", "assay": "microbe, parasite or virus in culture", "format": "cell-based"}, "[8]": {"system": "Clostridium difficile (anaerobe)", "assay": "microbe, parasite or virus in culture", "format": "cell-based"}, "[9]": {"conditions": "Burkholderia cepacia species clinical isolates, N 75"}}, "note": "Structures can show the parent of a compound that is named as a salt."}
{"smiles": "Cn1c(=O)ccc2ccc(F)c(CCNC[C@H]3CN(c4cnc5c(n4)NC(=O)CO5)C(=O)O3)c21", "note": "[compound of Formula (I) formate salt, (S)-6-(5-(((2-(7-fluoro-1-methyl-2-oxo-1,2-dihydroquinolin-8-yl)ethyl)amino)methyl)-2-oxooxazolidin-3-yl)-2H-pyrazino[2,3-b][1,4]oxazin-3(4H)-one formate]", "values": [{"measurement": "MIC Range, high end", "setting": "Citrobacter freundii", "value": 8, "unit": "mg/L"}, {"measurement": "MIC Range, low end", "setting": "Citrobacter freundii", "value": 0.03, "unit": "mg/L"}, {"measurement": "MIC50", "setting": "Citrobacter freundii; Citrobacter freundii", "value": 0.25, "unit": "mg/L"}, {"measurement": "MIC90", "setting": "Citrobacter freundii; Citrobacter freundii", "value": 1, "unit": "mg/L"}, {"measurement": "MIC Range, high end", "setting": "Acinetobacter baumannii", "value": 4, "unit": "mg/L"}, {"measurement": "MIC Range, low end", "setting": "Acinetobacter baumannii", "value": 0.03, "unit": "mg/L"}, {"measurement": "MIC50", "setting": "Acinetobacter baumannii; Acinetobacter baumannii", "value": 0.25, "unit": "mg/L"}, {"measurement": "MIC90", "setting": "Acinetobacter baumannii; Acinetobacter baumannii", "value": 0.5, "unit": "mg/L"}, {"measurement": "MIC Range, high end", "setting": "[1]", "value": 8, "unit": "mg/L"}, {"measurement": "MIC Range, low end", "setting": "[1]", "value": "≤0.015", "unit": "mg/L"}, {"measurement": "MIC50", "setting": "[1]; Bacteroides fragilis", "value": 0.06, "unit": "mg/L"}, {"measurement": "MIC90", "setting": "[1]; Bacteroides fragilis", "value": 0.25, "unit": "mg/L"}, {"measurement": "MIC Range, high end", "setting": "Helicobacter pylori", "value": 0.5, "unit": "mg/L"}, {"measurement": "MIC Range, low end", "setting": "Helicobacter pylori", "value": "≤0.015", "unit": "mg/L"}, {"measurement": "MIC50", "setting": "[2]; Burkholderia cepacia", "value": 0.06, "unit": "mg/L"}, {"measurement": "MIC90", "setting": "[2]; Burkholderia cepacia", "value": 0.5, "unit": "mg/L"}, {"measurement": "MIC Range, high end", "setting": "[2]; [9]", "value": 2, "unit": "mg/L"}, {"measurement": "MIC Range, low end", "setting": "[2]; [9]", "value": 0.03, "unit": "mg/L"}, {"measurement": "pH", "setting": "[3]; Sr. No. 2: 7.5% Citric acid solution", "value": 1.96}, {"measurement": "pH", "setting": "[3]; Sr. No. 6: 7.5% Citric acid + 20% HPβ-CD", "value": 1.94}, {"measurement": "pH", "setting": "[3]; Sr. No. 9: 10% Ascorbic acid + 1% PVP K-12 + 20% HPβ-CD", "value": 2.9}, {"measurement": "pH", "setting": "[3]; Sr. No. 10: 5% Ascorbic acid + 2% PVP K-12 + 20% HPβ-CD", "value": 3.19}, {"measurement": "pH", "setting": "[3]; Sr. No. 11: 7.5% Ascorbic acid + 2% PVP K-12 + 20% HPβ-CD", "value": 3.08}, {"measurement": "pH", "setting": "[3]; Sr. No. 12: 7.5% Ascorbic acid + 1% PVP K-12 + 20% HPβ-CD", "value": 3.07}, {"measurement": "pH", "setting": "[3]; Sr. No. 13: 5% Ascorbic acid + […] Lactic acid + 1% PVP K-12 + 20% HPβ-CD", "value": 2.88}, {"measurement": "pH", "setting": "[3]; Sr. No. 14: 5% Ascorbic acid + 1% PVP K-12 + 30% HPβ-CD", "value": 3.25}, {"measurement": "pH", "setting": "[3]; Sr. No. 15: 7.5% Ascorbic acid + 1% PVP K-12 + 30% HPβ-CD", "value": 3.15}, {"measurement": "pH", "setting": "[3]; Sr. No. 17: 10% Ascorbic acid + 1% PVP K-12 + 30% HPβ-CD", "value": 3.03}, {"measurement": "pH", "setting": "[3]; Sr. No. 18: 7% Ascorbic acid + […] Acetic acid + 1% PVP K-12 + 30% HPβ-CD", "value": 3.06}, {"measurement": "pH", "setting": "[3]; Sr. No. 19: 7% Ascorbic acid + 0.9% Glycine + 30% HPβ-CD", "value": 3.25}, {"measurement": "pH", "setting": "[3]; Sr. No. 20: 7% Ascorbic acid + […] Acetic acid + 0.9% Glycine + 30% HPβ-CD", "value": 3.16}, {"measurement": "pH", "setting": "[3]; Sr. No. 21: 7% Ascorbic acid + […] lactic acid + 1% PVP K-12 + 30% HPβ-CD", "value": 2.91}, {"measurement": "pH", "setting": "[3]; Sr. No. 22: 6% Ascorbic acid + […] Acetic acid + […] lactic acid + 1% PVP K-12 + 30% HPβ-CD", "value": 2.84}, {"measurement": "pH", "setting": "[3]; Sr. No. 23: Acetate Buffer (200 mM, pH 3.0) + 6% Ascorbic acid + […] lactic acid + 1% PVP K-12 + 30% HPβ-CD", "value": 2.78}, {"measurement": "pH", "setting": "[3]; Sr. No. 24: 5% Ascorbic acid + […] Acetic acid + […] lactic acid + 1% PVP K-12 + 30% HPβ-CD, pH adjusted by L-Arginine Solution", "value": 3.73}, {"measurement": "MIC Range, high end", "setting": "Serratia marcescens", "value": 32, "unit": "mg/L"}, {"measurement": "MIC Range, low end", "setting": "Serratia marcescens", "value": 0.03, "unit": "mg/L"}, {"measurement": "MIC50", "setting": "Serratia marcescens; Serratia marcescens", "value": 0.25, "unit": "mg/L"}, {"measurement": "MIC90", "setting": "Serratia marcescens; Serratia marcescens", "value": 1, "unit": "mg/L"}, {"measurement": "MIC Range, high end", "setting": "Providencia spp.", "value": 32, "unit": "mg/L"}, {"measurement": "MIC Range, low end", "setting": "Providencia spp.", "value": 0.06, "unit": "mg/L"}, {"measurement": "MIC50", "setting": "Providencia spp.; Providencia", "value": 0.5, "unit": "mg/L"}, {"measurement": "MIC90", "setting": "Providencia spp.; Providencia", "value": 2, "unit": "mg/L"}, {"measurement": "MIC Range, high end", "setting": "[4]", "value": 0.03, "unit": "mg/L"}, {"measurement": "MIC Range, low end", "setting": "[4]", "value": "<0.015", "unit": "mg/L"}, {"measurement": "MIC50", "setting": "[4]; Staphylococcus", "value": "< 0.015", "unit": "mg/L"}, {"measurement": "MIC90", "setting": "[4]; Staphylococcus", "value": "< 0.015", "unit": "mg/L"}, {"measurement": "MIC Range, high end", "setting": "Pseudomonas aeruginosa", "value": 8, "unit": "mg/L"}, {"measurement": "MIC Range, low end", "setting": "Pseudomonas aeruginosa", "value": "<0.015", "unit": "mg/L"}, {"measurement": "MIC50", "setting": "Pseudomonas aeruginosa; Pseudomonas aeruginosa", "value": 0.5, "unit": "mg/L"}, {"measurement": "MIC90", "setting": "Pseudomonas aeruginosa; Pseudomonas aeruginosa", "value": 1, "unit": "mg/L"}, {"measurement": "MIC Range, high end", "setting": "[5]", "value": 4, "unit": "mg/L"}, {"measurement": "MIC Range, low end", "setting": "[5]", "value": 0.06, "unit": "mg/L"}, {"measurement": "MIC50", "setting": "[5]; Klebsiella oxytoca", "value": 0.25, "unit": "mg/L"}, {"measurement": "MIC90", "setting": "[5]; Klebsiella oxytoca", "value": 0.5, "unit": "mg/L"}, {"measurement": "MIC Range, high end", "setting": "Enterococcus faecalis", "value": 0.25, "unit": "mg/L"}, {"measurement": "MIC Range, low end", "setting": "Enterococcus faecalis", "value": "<0.015", "unit": "mg/L"}, {"measurement": "MIC50", "setting": "Enterococcus faecalis; Enterococcus faecalis", "value": 0.03, "unit": "mg/L"}, {"measurement": "MIC90", "setting": "Enterococcus faecalis; Enterococcus faecalis", "value": 0.06, "unit": "mg/L"}, {"measurement": "MIC50", "setting": "[6]", "value": 0.25, "unit": "mg/L"}, {"measurement": "MIC90", "setting": "[6]", "value": 0.5, "unit": "mg/L"}, {"measurement": "MIC Range, high end", "setting": "[6]; N 40 strains", "value": 4, "unit": "mg/L"}, {"measurement": "MIC Range, low end", "setting": "[6]; N 40 strains", "value": "≤0.015", "unit": "mg/L"}, {"measurement": "MIC Range, high end", "setting": "Enterobacter aerogenes", "value": 0.25, "unit": "mg/L"}, {"measurement": "MIC Range, low end", "setting": "Enterobacter aerogenes", "value": 0.25, "unit": "mg/L"}, {"measurement": "MIC50", "setting": "Enterobacter aerogenes; Klebsiella aerogenes", "value": 0.25, "unit": "mg/L"}, {"measurement": "MIC90", "setting": "Enterobacter aerogenes; Klebsiella aerogenes", "value": 0.25, "unit": "mg/L"}, {"measurement": "MIC50", "setting": "Bacillus anthracis", "value": "≤ 0.015", "unit": "mg/L"}, {"measurement": "MIC90", "setting": "Bacillus anthracis", "value": "≤ 0.015", "unit": "mg/L"}, {"measurement": "MIC Range, high end", "setting": "Bacillus anthracis; N 42 strains", "value": "≤0.015", "unit": "mg/L"}, {"measurement": "MIC Range, low end", "setting": "Bacillus anthracis; N 42 strains", "value": "≤0.015", "unit": "mg/L"}, {"measurement": "MIC Range, high end", "setting": "[7]", "value": 0.5, "unit": "mg/L"}, {"measurement": "MIC Range, low end", "setting": "[7]", "value": "≤0.015", "unit": "mg/L"}, {"measurement": "MIC50", "setting": "[7]; Fusobacterium", "value": "≤ 0.015", "unit": "mg/L"}, {"measurement": "MIC90", "setting": "[7]; Fusobacterium", "value": "≤ 0.015", "unit": "mg/L"}, {"measurement": "MIC Range, high end", "setting": "Campylobacter sp.", "value": 0.03, "unit": "mg/L"}, {"measurement": "MIC Range, low end", "setting": "Campylobacter sp.", "value": "≤0.015", "unit": "mg/L"}, {"measurement": "MIC50", "setting": "Campylobacter sp.; Campylobacter", "value": "≤ 0.015", "unit": "mg/L"}, {"measurement": "MIC90", "setting": "Campylobacter sp.; Campylobacter", "value": "≤ 0.015", "unit": "mg/L"}, {"measurement": "MIC Range, high end", "setting": "[8]", "value": 0.06, "unit": "mg/L"}, {"measurement": "MIC Range, low end", "setting": "[8]", "value": "<0.015", "unit": "mg/L"}, {"measurement": "MIC50", "setting": "[8]; Clostridioides difficile", "value": "< 0.015", "unit": "mg/L"}, {"measurement": "MIC90", "setting": "[8]; Clostridioides difficile", "value": 0.03, "unit": "mg/L"}]}
